Test results: patent publication US20060069132A1, “Azolecarboxamide herbicides” (priority 2004, published 2006)

Columns and labels:
[1] = test system: corn; experiment: Test B pre-/postemergence herbicide test; format: in vivo, Zea mays
Method in brief: (§1)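 Formulation: non-phytotoxic solvent mix with surfactant. Timing: preemergence on seed and postemergence on 2–18 cm plants, applied concurrently. Readout after 13–15 d greenhouse: visual 0–100 control rating against controls.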

[2] = test system: small flower umbrella sedge; experiment: Test B flooded paddy test; format: in vivo, Cyperus difformis; conditions: 1000 g ai/ha, scale 0 to 100 (0 no effect, 100 complete control)
Method in brief: (§2)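 Paddy species grown to the 2-leaf stage under flooding; blackgrass sprayed postemergence at 2–18 cm (1- to 4-leaf stage). Plants kept in a greenhouse for 13 to 15 days, then visually rated against controls on 0 (no effect) to 100 (complete control).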

[3] = test system: morningglory; experiment: Test B pre-/postemergence herbicide test; format: in vivo, Ipomoea coccinea
Method in brief: (§3)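 Test chemicals in a non-phytotoxic solvent mixture with surfactant were applied preemergence to seeded species and postemergence to plants 2-18 cm tall (1- to 4-leaf stage); rice and barnyardgrass were also tested in a flooded paddy at the 2-leaf stage. Visual rating versus controls after 13-15 days in greenhouse, scale 0 (no effect) to 100 (complete control).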

[4] = test system: rice; experiment: Test B flooded paddy test; format: in vivo, Oryza sativa; conditions: 1000 g ai/ha, scale 0 to 100 (0 no effect, 100 complete control)
Method in brief: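 Scale 0–100: zero equals no visible effect, 100 complete control, judged by eye relative to controls. Timing: 13 to 15 days in greenhouse post-treatment. Growth stage at spraying: two leaves (paddy) or one to four leaves, 2–18 cm (postemergence).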

[5] = test system: ducksalad; experiment: Test B flooded paddy test; format: in vivo, Heteranthera limosa; conditions: 1000 g ai/ha, scale 0 to 100 (0 no effect, 100 complete control)
Method in brief: as §2

[6] = test system: pigweed; experiment: Test B pre-/postemergence herbicide test; format: in vivo, Amaranthus retroflexus
Method in brief: as §1

[7] = test system: barnyardgrass; experiment: Test B pre-/postemergence herbicide test; format: in vivo, Echinochloa crus-galli
Method in brief: as §3

[8] = test system: Surinam grass; experiment: Test B pre-/postemergence herbicide test; format: in vivo, Urochloa decumbens
Method in brief: as §1

[9] = test system: barnyardgrass; experiment: Test B flooded paddy test; format: in vivo, Echinochloa crus-galli; conditions: 1000 g ai/ha, scale 0 to 100 (0 no effect, 100 complete control)
Method in brief: as §2

[10] = test system: cocklebur; experiment: Test B pre-/postemergence herbicide test; format: in vivo, Xanthium strumarium
Method in brief: as §3

[11] = test system: wild oat; experiment: Test B postemergence herbicide test; format: in vivo, Avena fatua; conditions: scale 0 (no effect) to 100 (complete control)
Method in brief: (§4)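 Each value is a visual 0–100 response rating taken against controls 13 to 15 days after treatment in the greenhouse. Plants received formulated chemical postemergence at the 1- to 4-leaf stage or, in flooded paddy, at the 2-leaf stage.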

[12] = test system: blackgrass; experiment: Test B postemergence herbicide test; format: in vivo, Alopecurus myosuroides; conditions: scale 0 (no effect) to 100 (complete control)
Method in brief: as §2

[13] = test system: large crabgrass; experiment: Test B pre-/postemergence herbicide test; format: in vivo, Digitaria sanguinalis
Method in brief: as §1

[14] = test system: lambsquarters; experiment: Test B pre-/postemergence herbicide test; format: in vivo, Chenopodium album
Method in brief: as §1

[15] = test system: wheat; experiment: Test B postemergence herbicide test; format: in vivo, Triticum aestivum; parameters: key to Wheat plant response rating: 0 = no effect, 100 = complete control
Method in brief: as §4

[16] = test system: giant foxtail; experiment: Test B pre-/postemergence herbicide test; format: in vivo, Setaria faberi
Method in brief: as §1

[17] = 500 g ai/ha, visual rating 0-100, 0 no effect, 100 complete control, preemergence
[18] = postemergence, 125 g ai/ha, visual rating, scale 0 (no effect) to 100 (complete control)
[19] = postemergence, 500 g ai/ha, visual rating, scale 0 (no effect) to 100 (complete control)
[20] = preemergence, 125 g ai/ha, 0 to 100 scale, 0 is no effect, 100 is complete control
[21] = postemergence, 125 g ai/ha, visual rating
[22] = postemergence, 500 g ai/ha, visual rating
[23] = 125 g ai/ha, 0 is no effect, 100 is complete control, preemergence
[24] = 125 g ai/ha, visual rating, scale 0 (no effect) to 100 (complete control), postemergence
[25] = Postemergence, 500 g ai/ha, scale 0 (no effect) to 100 (complete control)
[26] = 125 g ai/ha, visual rating, postemergence
[27] = Postemergence, 500 g ai/ha, visual rating after 13 to 15 days, scale 0 (no effect) to 100 (complete control)
[28] = Preemergence, 500 g ai/ha, scale 0 to 100
[29] = Postemergence, 500 g ai/ha, visual rating after 13 to 15 days

CCn1nc(C(C)(C)C)cc1C(=O)Nc1cccc(C(N)=O)n1 [Compound 162, 6-[[[3-(1,1-dimethylethyl)-1-ethyl-1H-pyrazol-5-yl]carbonyl]amino]-2-pyridinecarboxamide]
0: Corn plant response rating [1, 18] | Corn plant response rating [1, 19] | Morningglory plant response rating [3, 18] | Barnyardgrass plant response rating [7, 18] | Surinam Grass plant response rating [8, 18]
60: Morningglory plant response rating [3, 19] | Cocklebur plant response rating [10, 19]
40: Pigweed plant response rating [6, 18] | Surinam Grass plant response rating [8, 19] | Oat, Wild plant response rating [11, 22] | Crabgrass, Large plant response rating [13, 19]
90: Plant response rating, Surinam Grass [8, 20] | Plant response rating, Cocklebur [10, 17] | Lambsquarters plant response rating [14, 19]
80: Plant response rating, Corn [1, 17] | Sedge, Umbrella plant response rating ([2]; visual rating, 13 to 15 days) | Plant response rating, Morningglory [3, 17] | Rice plant response rating ([4]; visual rating, 13 to 15 days) | Ducksalad plant response rating ([5]; visual rating, 13 to 15 days) | Pigweed plant response rating [6, 19] | Barnyardgrass plant response rating ([9]; visual rating, 13 to 15 days) | Lambsquarters plant response rating [14, 18]
20: Plant response rating, Morningglory [3, 20] | Oat, Wild plant response rating [11, 21] | Blackgrass plant response rating [12, 21] | Crabgrass, Large plant response rating [13, 18] | Foxtail, Giant plant response rating [16, 18]
100: Plant response rating, Pigweed [6, 17] | Plant response rating, Pigweed [6, 20] | Plant response rating, Barnyardgrass [7, 17] | Plant response rating, Barnyardgrass [7, 20] | Plant response rating, Surinam Grass [8, 17] | Plant response rating, Crabgrass, Large [13, 17] | Plant response rating, Crabgrass, Large [13, 20] | Plant response rating, Lambsquarters [14, 17] | Plant response rating, Lambsquarters [14, 20] | Plant response rating, Foxtail, Giant [16, 17] | Plant response rating, Foxtail, Giant [16, 20]
10: Cocklebur plant response rating [10, 18] | Wheat plant response rating [15, 19]
30: Plant response rating, Corn [1, 20] | Barnyardgrass plant response rating [7, 19] | Plant response rating, Cocklebur [10, 20] | Foxtail, Giant plant response rating [16, 19]
50: Blackgrass plant response rating [12, 22]

CCc1nn(C(C)(C)C)nc1C(=S)Nc1cccc(C(=S)N(C)C)c1 [Compound 396]
60: Plant response rating (0 to 100 scale), Morningglory [3, 23] | Morningglory plant response rating [3, 25] | Cocklebur plant response rating [10, 25]
100: Plant response rating (0 to 100 scale), Crabgrass, Large [13, 23] | Plant response rating (0 to 100 scale), Lambsquarters [14, 23] | Lambsquarters plant response rating [14, 25] | Wheat plant response rating ([15]; 500 g ai/ha, scale 0 to 100, 0 no effect, 100 complete control, preemergence) | Plant response rating (0 to 100 scale), Foxtail, Giant [16, 23]
40: Pigweed plant response rating [6, 24] | Plant response rating (0 to 100 scale), Cocklebur [10, 23]
70: Rice plant response rating [4] | Ducksalad plant response rating [5] | Pigweed plant response rating [6, 25]
90: Plant response rating (0 to 100 scale), Pigweed [6, 23] | Plant response rating (0 to 100 scale), Barnyardgrass [7, 23] | Plant response rating (0 to 100 scale), Surinam Grass [8, 23] | Barnyardgrass plant response rating [9]
0: Oat, Wild plant response rating [11, 26]
20: Morningglory plant response rating [3, 24] | Barnyardgrass plant response rating [7, 25] | Surinam Grass plant response rating [8, 24] | Cocklebur plant response rating [10, 24] | Crabgrass, Large plant response rating [13, 24] | Crabgrass, Large plant response rating [13, 25] | Wheat plant response rating [15, 25] | Foxtail, Giant plant response rating [16, 24]
30: Surinam Grass plant response rating [8, 25] | Oat, Wild plant response rating ([11]; Postemergence, 500 g ai/ha) | Blackgrass plant response rating ([12]; Postemergence, 500 g ai/ha) | Foxtail, Giant plant response rating [16, 25]
10: Corn plant response rating [1, 24] | Corn plant response rating [1, 25] | Barnyardgrass plant response rating [7, 24] | Blackgrass plant response rating [12, 26] | Wheat plant response rating [15, 24]
80: Plant response rating (0 to 100 scale), Corn [1, 23] | Sedge, Umbrella plant response rating [2] | Lambsquarters plant response rating [14, 24]

C#CCn1nc(C(C)(C)C)cc1C(=O)Nc1cccc(C(=O)NCC)c1 [Compound 50]
10: Corn plant response rating [1, 28] | Plant response rating, Morningglory [3, 20] | Crabgrass, Large plant response rating [13, 18]
90: Plant response rating, Cocklebur [10, 27] | Cocklebur plant response rating [10, 18] | Crabgrass, Large plant response rating [13, 28] | Plant response rating, Lambsquarters [14, 27] | Plant response rating, Lambsquarters [14, 20]
20: Plant response rating, Surinam Grass [8, 20] | Plant response rating, Oat, Wild [11, 29] | Oat, Wild plant response rating [11, 21] | Blackgrass plant response rating [12, 21] | Plant response rating, Foxtail, Giant [16, 20]
40: Plant response rating, Corn [1, 27] | Morningglory plant response rating [3, 28] | Plant response rating, Barnyardgrass [7, 20] | Plant response rating, Surinam Grass [8, 27]
0: Plant response rating, Corn [1, 20] | Cocklebur plant response rating [10, 28] | Plant response rating, Cocklebur [10, 20]
60: Rice plant response rating ([4]; visual rating, 13 to 15 days)
80: Sedge, Umbrella plant response rating ([2]; visual rating, 13 to 15 days) | Pigweed plant response rating [6, 18] | Barnyardgrass plant response rating [7, 28] | Lambsquarters plant response rating [14, 18]
70: Plant response rating, Morningglory [3, 27] | Morningglory plant response rating [3, 18] | Ducksalad plant response rating ([5]; visual rating, 13 to 15 days) | Plant response rating, Barnyardgrass [7, 27] | Barnyardgrass plant response rating ([9]; visual rating, 13 to 15 days)
100: Plant response rating, Pigweed [6, 27] | Pigweed plant response rating [6, 28] | Plant response rating, Pigweed [6, 20] | Lambsquarters plant response rating [14, 28] | Foxtail, Giant plant response rating [16, 28]
30: Corn plant response rating [1, 18] | Surinam Grass plant response rating [8, 18] | Plant response rating, Blackgrass [12, 29] | Plant response rating, Crabgrass, Large [13, 27] | Plant response rating, Crabgrass, Large [13, 20] | Plant response rating, Wheat [15, 27] | Wheat plant response rating [15, 18] | Plant response rating, Foxtail, Giant [16, 27] | Foxtail, Giant plant response rating [16, 18]
50: Barnyardgrass plant response rating [7, 18] | Surinam Grass plant response rating [8, 28]

C=Cn1nc(C(C)(C)C)cc1C(=O)Nc1cccc(C(C)=O)c1 [Compound 127]
50: Rice plant response rating ([4]; visual rating, 13 to 15 days) | Plant response rating, Surinam Grass [8, 20] | Barnyardgrass plant response rating ([9]; visual rating, 13 to 15 days)
20: Barnyardgrass plant response rating [7, 19] | Plant response rating, Barnyardgrass [7, 20] | Plant response rating, Cocklebur [10, 17] | Crabgrass, Large plant response rating [13, 18] | Foxtail, Giant plant response rating [16, 18]
30: Pigweed plant response rating [6, 18] | Crabgrass, Large plant response rating [13, 19] | Foxtail, Giant plant response rating [16, 19] | Plant response rating, Foxtail, Giant [16, 20]
90: Ducksalad plant response rating ([5]; visual rating, 13 to 15 days) | Plant response rating, Crabgrass, Large [13, 20]
40: Plant response rating, Pigweed [6, 20]
80: Cocklebur plant response rating [10, 19] | Lambsquarters plant response rating [14, 19]
0: Plant response rating, Corn [1, 17] | Plant response rating, Corn [1, 20] | Plant response rating, Morningglory [3, 20] | Plant response rating, Lambsquarters [14, 20] | Wheat plant response rating [15, 18]
10: Barnyardgrass plant response rating [7, 18] | Surinam Grass plant response rating [8, 18] | Surinam Grass plant response rating [8, 19] | Cocklebur plant response rating [10, 18] | Plant response rating, Cocklebur [10, 20] | Oat, Wild plant response rating [11, 21] | Oat, Wild plant response rating [11, 22] | Blackgrass plant response rating [12, 21] | Blackgrass plant response rating [12, 22] | Wheat plant response rating [15, 19]
60: Pigweed plant response rating [6, 19] | Plant response rating, Surinam Grass [8, 17]
100: Sedge, Umbrella plant response rating ([2]; visual rating, 13 to 15 days) | Plant response rating, Crabgrass, Large [13, 17]
70: Plant response rating, Pigweed [6, 17] | Plant response rating, Barnyardgrass [7, 17] | Plant response rating, Lambsquarters [14, 17] | Lambsquarters plant response rating [14, 18] | Plant response rating, Foxtail, Giant [16, 17]
